Measured values as given in patent US9309225B2, “N-((1-benzyl-1H-1,2,3-triazol-4-yl)methyl)arylamide compounds as potential anticancer agents and a process for the preparation thereof” (COUNCIL OF SCIENTIFIC & INDUSTRIAL RESEARCH, priority 2013, dated 2016).

How the values were obtained:
A549/ATCC = assay: NCI sixty human tumor cell line screen, Non-small-cell-lung panel; type: cell-based; conditions: NCI protocol
Description: (§1) The in vitro anticancer activity studies for these N-((1-benzyl-1H-1,2,3-triazol-4-yl)methyl) arylamide analogues were carried out at the National Cancer Institute, USA.
(§2) The N-((1-benzyl-1H-1,2,3-triazol-4-yl)methyl)arylamide analogues have been tested at NCI, USA, against sixty human tumor cell lines derived from nine cancer types (leukemia, non-small cell lung cancer, colon cancer, CNS cancer, melanoma cancer, ovarian cancer, renal cancer, prostate cancer and breast cancer). For these compounds results are expressed as growth inhibition (GI50) values as per NCI protocol.

EKVX = assay: as above; type: cell-based; conditions: NCI protocol
Description: as §1, §2

HOP-62 = assay: as above; type: cell-based; conditions: HOP-62, Non-small-cell-lung, NCI protocol
Description: as §1, §2

NCI-H226 = assay: as above; type: cell-based; conditions: NCI protocol
Description: as §1, §2

NCI-H460 = assay: as above; type: cell-based; conditions: NCI protocol
Description: as §1, §2

NCI-H522 = assay: as above; type: cell-based; conditions: NCI protocol
Description: as §1, §2

COLO 205 = assay: NCI sixty human tumor cell line screen, Colon panel; type: cell-based; conditions: COLO 205, Colon, NCI protocol
Description: as §1, §2

HCT-116 = assay: as above; type: cell-based; conditions: HCT-116, Colon, NCI protocol
Description: as §1, §2

HT29 = assay: as above; type: cell-based; conditions: HT-29, NCI protocol
Description: as §1, §2

KM12 = assay: as above; type: cell-based; conditions: NCI protocol
Description: as §1, §2

SW-620 = assay: as above; type: cell-based; conditions: SW-620, Colon, NCI protocol
Description: as §1, §2

SF-268 = assay: NCI sixty human tumor cell line screen, CNS panel; type: cell-based; conditions: SF-268, CNS, NCI protocol
Description: as §1, §2

SF-295 = assay: NCI sixty human tumor cell line screen, CNS panel; type: cell-based; conditions: SF-295, CNS, NCI protocol
Description: as §1, §2

SF-539 = assay: NCI sixty human tumor cell line screen, CNS panel; type: cell-based; conditions: SF-539, CNS, NCI protocol
Description: as §1, §2

SNB-19 = assay: NCI sixty human tumor cell line screen, CNS panel; type: cell-based; conditions: SNB-19, CNS, NCI protocol
Description: as §1, §2

SNB-75 = assay: NCI sixty human tumor cell line screen, CNS panel; type: cell-based; conditions: SNB-75, CNS, NCI protocol
Description: as §1, §2

U251 = assay: NCI sixty human tumor cell line screen, CNS panel; type: cell-based; conditions: U-251, NCI protocol
Description: as §1, §2

LOX IMVI = assay: NCI sixty human tumor cell line screen, Melanoma panel; type: cell-based; conditions: NCI protocol
Description: as §1, §2

M14 = assay: as above; type: cell-based; conditions: NCI protocol
Description: as §1, §2

MDA-MB-435 = assay: as above; type: cell-based; conditions: MDA-MB-435, Melanoma, NCI protocol
Description: as §1, §2

SK-MEL-28 = assay: as above; type: cell-based; conditions: SK-MEL-28, Melanoma, NCI protocol
Description: as §1, §2

SK-MEL-2 = assay: as above; type: cell-based; conditions: SK-MEL-2, Melanoma, NCI protocol
Description: as §1, §2

SK-MEL-5 = assay: as above; type: cell-based; conditions: SK-MEL-5, Melanoma, NCI protocol
Description: as §1, §2

UACC-62 = assay: as above; type: cell-based; conditions: UACC-62, Melanoma, NCI protocol
Description: as §1, §2

NCI/ADR-RES = assay: NCI sixty human tumor cell line screen, Ovarian panel; type: cell-based; conditions: NCI protocol
Description: as §1, §2

OVCAR-3 = assay: as above; type: cell-based; conditions: OVCAR-3, Ovarian, NCI protocol
Description: as §1, §2

OVCAR-4 = assay: as above; type: cell-based; conditions: OVCAR-4, Ovarian, NCI protocol
Description: as §1, §2

OVCAR-8 = assay: as above; type: cell-based; conditions: OVCAR-8, Ovarian, NCI protocol
Description: as §1, §2

SK-OV-3 = assay: as above; type: cell-based; conditions: SK-OV-3, Ovarian, NCI protocol
Description: as §1, §2

A498 = assay: NCI sixty human tumor cell line screen, Renal panel; type: cell-based; conditions: NCI protocol
Description: as §1, §2

ACHN = assay: as above; type: cell-based; conditions: NCI protocol
Description: as §1, §2

CAKI-1 = assay: as above; type: cell-based; conditions: CAKI-1, Renal, NCI protocol
Description: as §1, §2

RXF 393 = assay: as above; type: cell-based; conditions: RXF 393, Renal, NCI protocol
Description: as §1, §2

SN12C = assay: as above; type: cell-based; conditions: NCI protocol
Description: as §1, §2

TK-10 = assay: as above; type: cell-based; conditions: TK-10, Renal, NCI protocol
Description: as §1, §2

UO-31 = assay: as above; type: cell-based; conditions: UO-31, Renal, NCI protocol
Description: as §1, §2

DU-145 = assay: NCI sixty human tumor cell line screen, Prostate panel; type: cell-based; conditions: DU-145, Prostate, NCI protocol
Description: as §1, §2

PC-3 = assay: as above; type: cell-based; conditions: PC-3, Prostate, NCI protocol
Description: as §1, §2

BT-549 = assay: NCI sixty human tumor cell line screen, Breast panel; type: cell-based; conditions: BT-549, Breast, NCI protocol
Description: as §1, §2

MDA-MB-31/ATCC = assay: as above; type: cell-based; conditions: NCI protocol
Description: as §1, §2

MDA-MB-468 = assay: as above; type: cell-based; conditions: MDA-MB-468, Breast, NCI protocol
Description: as §1, §2

T-47D = assay: as above; type: cell-based; conditions: T47D, NCI protocol
Description: as §1, §2

## COc1ccc(Nc2ncccc2C(=O)NCc2cn(Cc3cccc(Oc4ccccc4)c3)nn2)cc1 [Compound 1e, 2-(4-Methoxyphenylamino)-N-((1-(3-phenoxybenzyl)-1H-1,2,3-triazol-4-yl)methyl) nicotinamide]
A549/ATCC
  GI50: 3.44 µM
EKVX
  GI50: 4.16 µM
HOP-62
  GI50: 5.07 µM
NCI-H226
  GI50: 3.92 µM
NCI-H460
  GI50: 3.52 µM
NCI-H522
  GI50: 2.13 µM
COLO 205
  GI50: 2.86 µM
HCT-116
  GI50: 4.17 µM
HT29
  GI50: 3.66 µM
KM12
  GI50: 3.43 µM
SW-620
  GI50: 3.86 µM
SF-268
  GI50: 4.59 µM
SF-295
  GI50: 2.94 µM
SF-539
  GI50: 2.79 µM
SNB-19
  GI50: 3.55 µM
SNB-75
  GI50: 3.09 µM
U251
  GI50: 3.91 µM
LOX IMVI
  GI50: 3.6 µM
M14
  GI50: 3.15 µM
MDA-MB-435
  GI50: 1.71 µM
SK-MEL-28
  GI50: 3.88 µM
SK-MEL-2
  GI50: 3.66 µM
SK-MEL-5
  GI50: 2.9 µM
UACC-62
  GI50: 3.13 µM
NCI/ADR-RES
  GI50: 3.21 µM
OVCAR-3
  GI50: 3.69 µM
OVCAR-4
  GI50: 5.42 µM
OVCAR-8
  GI50: 5.96 µM
SK-OV-3
  GI50: 4.33 µM
A498
  GI50: 4.18 µM
ACHN
  GI50: 6.9 µM
CAKI-1
  GI50: 6.3 µM
RXF 393
  GI50: 3.77 µM
SN12C
  GI50: 7.41 µM
TK-10
  GI50: 5.16 µM
UO-31
  GI50: 5.25 µM
DU-145
  GI50: 1.05 µM
PC-3
  GI50: 4.74 µM
BT-549
  GI50: 7.16 µM
MDA-MB-31/ATCC
  GI50: 5.35 µM
MDA-MB-468
  GI50: 2.42 µM
T-47D
  GI50: 4.68 µM
other
  melting point: 95 to 98 °C

## COc1cc(Nc2ncccc2C(=O)NCc2cn(Cc3cccc(Oc4ccccc4)c3)nn2)cc(OC)c1 [Compound 1i, 2-(3,5-Dimethoxyphenylamino)-N-((1-(3-phenoxybenzyl)-1H-1,2,3-triazol-4-yl)methyl) nicotinamide]
A549/ATCC
  GI50: 4.02 µM
EKVX
  GI50: 6.33 µM
HOP-62
  GI50: 6.31 µM
NCI-H226
  GI50: 9.82 µM
NCI-H460
  GI50: 3.98 µM
NCI-H522
  GI50: 3.31 µM
COLO 205
  GI50: 4.12 µM
HCT-116
  GI50: 4.34 µM
HT29
  GI50: 3.88 µM
KM12
  GI50: 3.84 µM
SW-620
  GI50: 3.88 µM
SF-268
  GI50: 5.43 µM
SF-295
  GI50: 4.06 µM
SF-539
  GI50: 4.39 µM
SNB-19
  GI50: 9.64 µM
SNB-75
  GI50: 3.98 µM
U251
  GI50: 4.58 µM
LOX IMVI
  GI50: 5.1 µM
M14
  GI50: 4.8 µM
MDA-MB-435
  GI50: 2.23 µM
SK-MEL-28
  GI50: 4.14 µM
SK-MEL-2
  GI50: 6.69 µM
SK-MEL-5
  GI50: 3.11 µM
UACC-62
  GI50: 3.86 µM
NCI/ADR-RES
  GI50: 3.21 µM
OVCAR-3
  GI50: 3.69 µM
OVCAR-4
  GI50: 5.42 µM
OVCAR-8
  GI50: 5.96 µM
SK-OV-3
  GI50: 4.33 µM
A498
  GI50: 4.18 µM
ACHN
  GI50: 6.9 µM
CAKI-1
  GI50: 6.3 µM
RXF 393
  GI50: 3.77 µM
SN12C
  GI50: 7.41 µM
TK-10
  GI50: 5.16 µM
UO-31
  GI50: 5.25 µM
DU-145
  GI50: 1.05 µM
PC-3
  GI50: 4.74 µM
BT-549
  GI50: 7.16 µM
MDA-MB-31/ATCC
  GI50: 5.35 µM
MDA-MB-468
  GI50: 2.42 µM
T-47D
  GI50: 4.68 µM
other
  melting point: 123 to 125 °C
